From ChEMBL document CHEMBL1201862, “PubChem BioAssay data set” (2004)
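Cells were grown in 96-well plates and exposed to each compound for 48 hours at five concentrations; endpoints were interpolated linearly between bracketing concentrations, or set to the highest concentration if not reached. The concentration for 50% growth inhibition is given as GI50.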 Calls of active or inactive are those of the source. Rule as the data show it: active = GI50 up to about 1.1 µM and inactive = higher.

What was measured:
Assay in all cases: NCI anticancer screen, dose series, 48 h
786-0 = test system: 786-0
ACHN = test system: ACHN
BT-549 = test system: BT-549
DU-145 = test system: DU-145
HOP-62 = test system: HOP-62
HOP-92 = test system: HOP-92
HT-29 = test system: HT-29
LOX IMVI = test system: LOX IMVI
NCI-H522 = test system: NCI-H522
NCI/ADR-RES = test system: NCI/ADR-RES
OVCAR-3 = test system: OVCAR-3
OVCAR-5 = test system: OVCAR-5
OVCAR-8 = test system: OVCAR-8
PC-3 = test system: PC-3
SF-268 = test system: SF-268
SK-MEL-28 = test system: SK-MEL-28
SN12C = test system: SN12C
SNB-19 = test system: SNB-19
SW-620 = test system: SW-620
SK-MEL-2 = test system: SK-MEL-2

C=CCNC(=O)CN(CC(=O)O)C1CCCCC1N(CC(=O)O)CC(=O)O (stereo not drawn)
GI50 (786-0): > 100 µM (inactive)
GI50 (ACHN): > 100 µM (inactive)
GI50 (BT-549): > 100 µM (inactive)
GI50 (DU-145): > 100 µM (inactive)
GI50 (HOP-62): > 100 µM (inactive)
GI50 (HOP-92): > 100 µM (inactive)
GI50 (HT-29): > 100 µM (inactive)
GI50 (LOX IMVI): > 100 µM (inactive)
GI50 (NCI-H522): > 100 µM (inactive)
GI50 (NCI/ADR-RES): > 100 µM (inactive)
GI50 (OVCAR-3): > 100 µM (inactive)
GI50 (OVCAR-5): > 100 µM (inactive)
GI50 (OVCAR-8): > 100 µM (inactive)
GI50 (PC-3): > 100 µM (inactive)
GI50 (SF-268): > 100 µM (inactive)
GI50 (SK-MEL-28): > 100 µM (inactive)
GI50 (SN12C): > 100 µM (inactive)
GI50 (SNB-19): > 100 µM (inactive)
GI50 (SW-620): > 100 µM (inactive)

O=c1c2c3c(sc2nc2n1NC=NN2)CCCC3
GI50 (786-0): 17.6 µM (inactive)
GI50 (ACHN): 16.7 µM (inactive)
GI50 (BT-549): 17.5 µM (inactive)
GI50 (DU-145): 36.6 µM (inactive)
GI50 (HOP-92): 18.1 µM (inactive)
GI50 (HT-29): 17.5 µM (inactive)
GI50 (LOX IMVI): 2.49 µM (inactive)
GI50 (NCI-H522): 16.3 µM (inactive)
GI50 (NCI/ADR-RES): 26.7 µM (inactive)
GI50 (OVCAR-3): 1.28 µM (inactive)
GI50 (OVCAR-5): 18.2 µM (inactive)
GI50 (OVCAR-8): 24.7 µM (inactive)
GI50 (PC-3): 24.2 µM (inactive)
GI50 (SF-268): 17.5 µM (inactive)
GI50 (SK-MEL-28): 17.7 µM (inactive)
GI50 (SK-MEL-2): 19.4 µM (inactive)
GI50 (SN12C): 17.9 µM (inactive)
GI50 (SNB-19): 42.7 µM (inactive)
GI50 (SW-620): 17.6 µM (inactive)

CC1(C)C=[N+]([O-])C(C)(C)N1O
GI50 (786-0): > 10 µM (inactive)
GI50 (ACHN): > 10 µM (inactive)
GI50 (BT-549): > 10 µM (inactive)
GI50 (DU-145): > 10 µM (inactive)
GI50 (HOP-62): > 10 µM (inactive)
GI50 (HOP-92): > 10 µM (inactive)
GI50 (HT-29): > 10 µM (inactive)
GI50 (NCI-H522): > 10 µM (inactive)
GI50 (NCI/ADR-RES): > 10 µM (inactive)
GI50 (OVCAR-3): > 10 µM (inactive)
GI50 (OVCAR-5): > 10 µM (inactive)
GI50 (OVCAR-8): > 10 µM (inactive)
GI50 (PC-3): > 10 µM (inactive)
GI50 (SF-268): > 10 µM (inactive)
GI50 (SK-MEL-2): > 10 µM (inactive)
GI50 (SN12C): > 10 µM (inactive)
GI50 (SNB-19): > 10 µM (inactive)
GI50 (SW-620): > 10 µM (inactive)

CCc1c(Cc2cc(C)cc(C)c2)n2c(nc1=O)SCC2CBr (stereo not drawn)
GI50 (786-0): > 50 µM (inactive)
GI50 (ACHN): > 50 µM (inactive)
GI50 (BT-549): > 50 µM (inactive)
GI50 (DU-145): 23.1 µM (inactive)
GI50 (HOP-92): 9.93 µM (inactive)
GI50 (HT-29): > 50 µM (inactive)
GI50 (LOX IMVI): > 50 µM (inactive)
GI50 (NCI-H522): 27.4 µM (inactive)
GI50 (NCI/ADR-RES): > 50 µM (inactive)
GI50 (OVCAR-5): > 50 µM (inactive)
GI50 (OVCAR-8): 10.4 µM (inactive)
GI50 (PC-3): > 50 µM (inactive)
GI50 (SF-268): > 50 µM (inactive)
GI50 (SK-MEL-28): > 50 µM (inactive)
GI50 (SK-MEL-2): 44.4 µM (inactive)
GI50 (SN12C): > 50 µM (inactive)
GI50 (SNB-19): 23.1 µM (inactive)
GI50 (SW-620): > 50 µM (inactive)

COc1ccc(C2c3c(n(C)c(=O)n(C)c3=O)OC(N(C)C)(N(C)C)C2(F)F)cc1 (stereo not drawn)
GI50 (786-0): > 100 µM (inactive)
GI50 (ACHN): > 100 µM (inactive)
GI50 (BT-549): > 100 µM (inactive)
GI50 (DU-145): > 100 µM (inactive)
GI50 (HOP-62): > 100 µM (inactive)
GI50 (HOP-92): > 100 µM (inactive)
GI50 (LOX IMVI): > 100 µM (inactive)
GI50 (NCI/ADR-RES): > 100 µM (inactive)
GI50 (OVCAR-3): > 100 µM (inactive)
GI50 (OVCAR-5): > 100 µM (inactive)
GI50 (PC-3): > 100 µM (inactive)
GI50 (SF-268): > 100 µM (inactive)
GI50 (SK-MEL-28): > 100 µM (inactive)
GI50 (SK-MEL-2): > 100 µM (inactive)
GI50 (SNB-19): > 100 µM (inactive)
GI50 (SW-620): > 100 µM (inactive)

O=[N+]([O-])c1ccc(NC(=S)N/N=C(\c2ccccc2)c2ccccn2)cc1
GI50 (786-0): 1.25 µM (inactive)
GI50 (ACHN): 1.16 µM (inactive)
GI50 (BT-549): 1.63 µM (inactive)
GI50 (DU-145): 1.66 µM (inactive)
GI50 (HOP-62): 0.242 µM (active)
GI50 (HOP-92): 1.87 µM (inactive)
GI50 (NCI-H522): 0.12 µM (active)
GI50 (NCI/ADR-RES): 2.04 µM (inactive)
GI50 (OVCAR-5): 1.88 µM (inactive)
GI50 (OVCAR-8): 0.037 µM (active)
GI50 (PC-3): 0.229 µM (active)
GI50 (SF-268): 0.0491 µM (active)
GI50 (SK-MEL-28): 1.22 µM (inactive)
GI50 (SK-MEL-2): 1.76 µM (inactive)
GI50 (SN12C): 1.48 µM (inactive)
GI50 (SNB-19): 1.58 µM (inactive)

C=CC(O)(CBr)CCC(Br)C(=C)C (stereo not drawn)
GI50 (786-0): > 10 µM (inactive)
GI50 (ACHN): > 10 µM (inactive)
GI50 (BT-549): > 10 µM (inactive)
GI50 (DU-145): > 10 µM (inactive)
GI50 (HOP-62): > 10 µM (inactive)
GI50 (HT-29): > 10 µM (inactive)
GI50 (LOX IMVI): > 10 µM (inactive)
GI50 (NCI-H522): > 10 µM (inactive)
GI50 (NCI/ADR-RES): > 10 µM (inactive)
GI50 (OVCAR-3): > 10 µM (inactive)
GI50 (OVCAR-5): > 10 µM (inactive)
GI50 (OVCAR-8): > 10 µM (inactive)
GI50 (PC-3): > 10 µM (inactive)
GI50 (SF-268): > 10 µM (inactive)
GI50 (SK-MEL-28): > 10 µM (inactive)
GI50 (SK-MEL-2): > 10 µM (inactive)
GI50 (SN12C): > 10 µM (inactive)
GI50 (SNB-19): > 10 µM (inactive)
GI50 (SW-620): > 10 µM (inactive)

CCOc1ccc(NC(=O)/C(=N\NC(C)(C)C)C2C(=O)Nc3ccccc3[S+]2[O-])cc1 (stereo not drawn)
GI50 (786-0): > 100 µM (inactive)
GI50 (ACHN): > 100 µM (inactive)
GI50 (BT-549): > 100 µM (inactive)
GI50 (DU-145): > 100 µM (inactive)
GI50 (HOP-62): > 100 µM (inactive)
GI50 (HOP-92): > 100 µM (inactive)
GI50 (HT-29): > 100 µM (inactive)
GI50 (NCI-H522): > 100 µM (inactive)
GI50 (NCI/ADR-RES): > 100 µM (inactive)
GI50 (OVCAR-3): > 100 µM (inactive)
GI50 (OVCAR-5): > 100 µM (inactive)
GI50 (OVCAR-8): > 100 µM (inactive)
GI50 (PC-3): > 100 µM (inactive)
GI50 (SF-268): > 100 µM (inactive)
GI50 (SK-MEL-28): > 100 µM (inactive)
GI50 (SK-MEL-2): > 100 µM (inactive)
GI50 (SN12C): > 100 µM (inactive)
GI50 (SNB-19): > 100 µM (inactive)
GI50 (SW-620): > 100 µM (inactive)

NCCNc1ccc(NCCN)c2c1C(=O)c1c(O)ccc(O)c1C2=O
GI50 (786-0): 0.00459 µM (active)
GI50 (ACHN): 0.00542 µM (active)
GI50 (BT-549): 0.653 µM (active)
GI50 (DU-145): 0.109 µM (active)
GI50 (HOP-92): 0.00686 µM (active)
GI50 (HT-29): 0.0659 µM (active)
GI50 (LOX IMVI): 0.007 µM (active)
GI50 (NCI-H522): 0.0324 µM (active)
GI50 (NCI/ADR-RES): 0.192 µM (active)
GI50 (OVCAR-3): 0.486 µM (active)
GI50 (OVCAR-5): 0.971 µM (active)
GI50 (OVCAR-8): 0.0158 µM (active)
GI50 (PC-3): 0.205 µM (active)
GI50 (SF-268): 0.00721 µM (active)
GI50 (SK-MEL-28): 1.07 µM (active)
GI50 (SK-MEL-2): 0.44 µM (active)
GI50 (SN12C): 0.00483 µM (active)
GI50 (SNB-19): 0.00944 µM (active)
GI50 (SW-620): 0.0246 µM (active)

CCn1c(=O)c2c3ccc(O)cc3[nH]c2c2ccc(O)cc21
GI50 (ACHN): 96.4 µM (inactive)
GI50 (BT-549): > 100 µM (inactive)
GI50 (DU-145): > 100 µM (inactive)
GI50 (HOP-62): > 100 µM (inactive)
GI50 (HOP-92): > 100 µM (inactive)
GI50 (HT-29): > 100 µM (inactive)
GI50 (NCI-H522): 93.3 µM (inactive)
GI50 (NCI/ADR-RES): > 100 µM (inactive)
GI50 (OVCAR-3): > 100 µM (inactive)
GI50 (OVCAR-5): > 100 µM (inactive)
GI50 (OVCAR-8): > 100 µM (inactive)
GI50 (PC-3): > 100 µM (inactive)
GI50 (SF-268): > 100 µM (inactive)
GI50 (SK-MEL-28): > 100 µM (inactive)
GI50 (SN12C): 81.5 µM (inactive)
GI50 (SNB-19): > 100 µM (inactive)
GI50 (SW-620): > 100 µM (inactive)

N#CC(c1ccccc1)N(CCOCCOCCN(C(=O)c1ccccc1)C(C#N)c1ccccc1)C(=O)c1ccccc1 (stereo not drawn)
GI50 (786-0): > 100 µM (inactive)
GI50 (ACHN): > 100 µM (inactive)
GI50 (BT-549): > 100 µM (inactive)
GI50 (DU-145): > 100 µM (inactive)
GI50 (HOP-92): 43.8 µM (inactive)
GI50 (HT-29): > 100 µM (inactive)
GI50 (LOX IMVI): 91.2 µM (inactive)
GI50 (NCI/ADR-RES): 28.2 µM (inactive)
GI50 (OVCAR-3): 66.8 µM (inactive)
GI50 (OVCAR-5): > 100 µM (inactive)
GI50 (OVCAR-8): > 100 µM (inactive)
GI50 (PC-3): 37.5 µM (inactive)
GI50 (SF-268): > 100 µM (inactive)
GI50 (SK-MEL-28): 82.6 µM (inactive)
GI50 (SK-MEL-2): 85.3 µM (inactive)
GI50 (SN12C): 93.3 µM (inactive)
GI50 (SNB-19): > 100 µM (inactive)
GI50 (SW-620): > 100 µM (inactive)
